The values below come from patent US5179093A, “Quinoline-diones” (Schering Corporation, priority 1991, dated 1993).

Converted amounts (≈) assume the structure as drawn. Bounds are passed on as bounds.

One series has as its system HSV-2. To be noted: U.S. Pat. No. 4,757,088; cited from earlier work.
A further series relates to HSV. The note with it: according to Haines et al.; cited from earlier work.
Series [1] relates to herpes virus. To be noted: U.S. Pat. No. 4,757,088; cited from earlier work.
The next series concerns HSV-1. To be noted: U.S. Pat. No. 4,757,088; cited from earlier work.
Series [2] can be described thus: Compound toxicity assay: inhibition of HeLa cell translation (^3 H-LEU assay). The class given is cell-based. The note with it: human; HeLa cells, overnight (24 hours) treatment, tritiated leucine incorporation; read-out: CYTOTOXICITY ^3 H--LEU ASSAY IC50. How it is done: HeLa cells were treated with inhibitory compound for 24 hours, after which levels of translational activity were assayed.
For assay of translational activity, HeLa cultures were grown to 80% confluency in 96 well microtiter plates, treated with appropriate concentrations of compound in 2% EMEM during an overnight incubation at 37° C., then rinsed with HBSS and overlaid with […] of 2% EMEM containing 8 uCi of tritiated leucine (^3 H-LEU, 141 Ci/mMol, Amersham Corp., Arlington Heights Ill.). After 1 hr incubation at 36.5° C., the cells were rinsed twice with phosphate buffered saline (PBS) and lysed in 400 ul/well of 1×PBS, 0.5% sodium dodecyl sulphate (SDS). After a 10 minute incubation at 36.5° C., the contents of the well were transferred to a well in a Millititer HA microfiltration plate (Millipore Corp., Bedford, MA). The TCA insoluble proteins were precipitated onto the filter disc by a 10 minute fixation with 5% TCA, followed by filtration under vacuum and three 10 minute rinses with 95% ethanol. The filters were dried at room temperature, cut from the milltitier plate and transferred to scintillation vials. TCA precipitable counts were assayed in 5 ml of Scintisol (Isolab, Akron, Ohio). The inhibitory activity of a compound was plotted versus the concentration and an IC50 value (that concentration of the compound required to decrease cellular translational activity by 50%) was derived for each compound.

A further series has as its system HSV-2 (strain MS). Nature of the series: Transient expression of beta galactosidase in transfected HeLa cells superinfected with HSV-2 (HSV-β-GAL assay). The class given is cell-based. To be noted: Human alphaherpesvirus 2, plasmid pON 245^ori-, moi=5 pfu/cell, 24 hours, read-out: ANTI-HSV ACTIVITY HSV-β-GAL ASSAY IC50. As to the method: HeLa and Vero cell cultures were maintained in Eagles Minimal Essential Medium (EMEM) which was supplemented with glutamine, penicillin, streptomycin and 10% fetal calf serum (10% EMEM). Stock cultures of HSV-2 (strain MS available from ATCC VR-540) were grown in and harvested from Vero cells. Viral stocks were titered in Vero cells according to established procedures.
Plasmid pON 245^ori- contains the promoter of the HSV-1 thymidine kinase (tk) gene located immediately 5' of the E. coli lac Z gene. In this arrangement, the tk promoter controls transcription from the bacterial gene in transient expression assays. Additionally, an SV40 polyadenylation signal is present at the 3' end of the lac Z gene to allow for the efficient translation of the mRNA in eucaryotic cells. The expression of beta galactosidase in a transient assay using pON 245^ori- is dependent upon superinfection of the transfected cells with HSV. […] For example see U.S. application Ser. No. 07/435,491 filed Sep. 5, 1989, the disclosure of which is incorporated herein by reference thereto.
HeLa cells were seeded into 96 well microtiter plates and allowed to grow to 80% confluency (approximately 35,000 cells/well). One half microgram of plasmid pON 245^ori- DNA was introduced into the cells of each well by the […] precipitation technique (Grahman and Van der Eb, 1973). Four to six hours later, the cells were rinsed with hank's Balanced Salt Solution (HBSS), overlaid with 10% EMEM and incubated at 37° C. At 24 hrs post-transfection, cells were rinsed, overlaid with 10% EMEM again and re-incubated at 37° C. At 48 hrs post-transfection, cells were rinsed and overlaid with either EMEM containing 2% fetal calf serum (2% EMEM), 2% EMEM containing HSV-2 (strain MS, Multiplicity of Infection [moi]=5 pfu/cell) or 2% EMEM containing HSV-2 and the appropriate concentration of Schering compound to be tested. Twenty-four hours later, the cells were harvested and assayed for beta galactosidase activity as described below.
All determinations of beta galactosidase activity were performed in 96 well microtiter plates. The intracellular level of beta galactosidase activity in each well was determined from cell lysates of the monolayer cultures. Aliquots were assayed by incubation in the presence of beta galactosidase substrate, 4-methylumbelliferyl-β-D-galactoside (MUG, 125 ug/ml, Sigma), for 2 hours. The generation of fluorescent product was quantified on a Microfluor microfluorimeter (Dynatech) after addition of 0.1M glycine, pH 10.3 (Spaete and Mocarski, 1985). The inhibitory activity of a compound was plotted versus the concentration and an IC50 value (the concentration of compound required to reduce beta glactosidase expression by 50%) was obtained for each compound tested.

Series [3] deals with HSV-2, strain MS. Nature of the series: Prophylactic guinea pig model of HSV infection (genital lesions). The class given is in vivo. The note with it: 60 mpk × 3/24 hr, sc. How it is done:
The in vivo assessment of anti-HSV efficacy was determined in the prophylactic guinea pig model of HSV infection described by Stanberry et al (1982) The Journal of Infectious Diseases-vol. 146, No. 3, pages 397-404, which is hereby incorporated by reference. Dosing of guinea pigs was comprised of an initial treatment with test compound given 24 hours prior to virus infection and subsequent administration of the compound every eight hours (T.I.D.) for a total of 10 days. Test compounds were administered subcutaneously in 0.5% buffered methyl cellulose at a dose of 60 mg per kg body weight of the animal. Animals were monitored daily for the development of genital lesions and neurological symptomology, both of which were recorded and compared to the results obtained with parallel groups which received placebo or acyclovir treatment. Efficacy was evaluated for each compound by scoring the ability of the compound to ameliorate genital lesions produced by infection with HSV-2, strain MS, expressed as Activity Coefficients. The Activity Coefficients. were calculated as follows: The ability of a test compound to ameliorate lesions was plotted graphically with the number of days being on one axis, and the number of lesions being on the other axis. […]

Series [4] concerns herpes virus. To be noted: added to lidocaine or lidocaine hydrochloride; Haines et al.; cited from earlier work.
Series [5] deals with HSV-2, strain MS. Nature of the series: Therapeutic guinea pig model of HSV infection (genital lesions). It counts as in vivo. As to the method: The in vivo assessment of anti-HSV efficacy was determined in the prophylactic guinea pig model of HSV infection described by Stanberry et al (1982) The Journal of Infectious Diseases-vol. 146, No. 3, pages 397-404, which is hereby incorporated by reference. Dosing of guinea pigs was comprised of an initial treatment with test compound given 24 hours prior to virus infection and subsequent administration of the compound every eight hours (T.I.D.) for a total of 10 days. Test compounds were administered subcutaneously in 0.5% buffered methyl cellulose at a dose of 60 mg per kg body weight of the animal. Animals were monitored daily for the development of genital lesions and neurological symptomology, both of which were recorded and compared to the results obtained with parallel groups which received placebo or acyclovir treatment. Efficacy was evaluated for each compound by scoring the ability of the compound to ameliorate genital lesions produced by infection with HSV-2, strain MS, expressed as Activity Coefficients. The Activity Coefficients. were calculated as follows: The ability of a test compound to ameliorate lesions was plotted graphically with the number of days being on one axis, and the number of lesions being on the other axis. The area under the resultant curve was put in the numerator of a fraction with the denominator either being the area under a similar curve where placebo was employed(EXP/PL), or the area under the curve where acyclovir was employed (EXP/ACV). Thus (Exp/PL) is the ratio of test compound to placebo. (Exp/ACV) is the ratio of test compound to acyclovir. […] In the therapeutic guinea pig model, dosing of guinea pigs started 24 hours after they were infected with the virus. Subsequent administration of the test compound was done every eight hours for a total of ten days. Activity coefficients were calculated in the same manner as described for the prophylactic guinea pig model above.

For `CCN(CC)CC(=O)Nc1c(C)cccc1C` [lidocaine, 2-(diethylamino)-N-(2,6-dimethylphenyl)acetamide], the “antiviral activity in cell culture against HSV-2” value with HSV-2 was “antiviral agent in cell culture against HSV-1 and HSV-2”. For the same compound, in the series with HSV, the “treatment of HSV oral and genital lesions in humans” value is listed as “particularly effective”. Further, the “ability to treat herpes virus infections of mammals” value with herpes virus [1] was “able to treat herpes virus infections of mammals”. The “antiviral activity in cell culture against HSV-1” value with HSV-1 was “antiviral agent in cell culture against HSV-1 and HSV-2”.

For the compound `O=C1C(=CNCc2ccccc2)C(=O)N(Cc2ccccc2)c2ccccc21` [EX. 23, (E,Z)1-Benzyl-3-Benzylaminomethylene-Quinolin-2,4(1H)-Dione], in series [2], the CC50 at 24 h is more than 100 µg/mL. In addition, the half-maximal inhibitory concentration (IC50) with HSV-2 (strain MS) was found to be 5 µg/mL (≈ 13.6 µM). For the same compound, the “Activity Coefficient (Exp/ACV)” value in the series on HSV-2, strain MS [3] (lesion score AUC days 1-10, ratio test compound to acyclovir) was found to be 4.05 ± 2.21. In addition, the “Activity Coefficient (Exp/PL)” value in the series on HSV-2, strain MS [3] (lesion score AUC days 1-10, ratio test compound to placebo) worked out at 0.67 ± 0.03.

Take `CC(C)(CO)[C@@H](O)C(=O)NCCCO` [dexpanthenol]: the “enhancement of antiviral activity” value with herpes virus [4] is reported as “significantly enhances the antiviral activity”.

Consider `O=C1C(=CNCc2ccccc2)C(=O)N(Cc2ccccc2)c2ccsc21` [EX. 45, (E,Z) 4-benzyl-6-benzylaminomethylene-thieno[3,2-b]pyridine-5,7(4H,6H)-dione], for which, in [2], the CC50 at 24 h worked out at 40 µg/mL (≈ 107 µM). For the same compound, the IC50 in the series on HSV-2 (strain MS) came out at 4 µg/mL (≈ 10.7 µM). The “Activity Coefficient (Exp/PL)” value with HSV-2, strain MS [5] (30 mpk × 3/24 hr, sc, therapeutic, lesion score AUC days 1-10, ratio test compound to placebo) was 0.71. Besides, the “Activity Coefficient (Exp/ACV)” value in the series with HSV-2, strain MS [5] (30 mpk × 3/24 hr, sc, therapeutic, lesion score AUC days 1-10, ratio to acyclovir, ACV was not efficaceous in this study) came out at 0.93.

As to `Nc1nc2c(ncn2COCCO)c(=O)[nH]1` [ACV, 9-[(2-hydroxyethoxy)methyl]guanine, reference compound], in the series with HSV-2, strain MS [5] (therapeutic study with Example 45), the “efficacy of acyclovir in the therapeutic study” value is reported as “not efficaceous”.

As to `CC(C)(CO)[C@@H](O)C(=O)NCCC(=O)O` [pantothenic acid], in the series on herpes virus [4], the “enhancement of antiviral activity” value is on record as “significantly enhances the antiviral activity”.

On to `CCCCCCCN1C(=O)C(=CNC23CC4CC(CC(C4)C2)C3)C(=O)c2ccccc21` [EX. 40, (E,Z)-1-heptyl-3-[1-adamantylaminomethylene]-quinolin-2,4(1H)dione], for which the CC50 at 24 h in [2] amounted to 33 µg/mL (≈ 78.5 µM). Moreover, the IC50 in the series with HSV-2 (strain MS) is 5 µg/mL (≈ 11.9 µM).

With `O=C1C(=CNCc2ccncc2)C(=O)N(Cc2ccccc2)c2cc(Cl)ccc21` [EX. 19, (E,Z)1-Benzyl-3-[(4-Pyridylmethylamino)methylene]7-Chloro-Quinolin-2,4(1H)-Dione], in series [2], the CC50 at 24 h was determined as 40 µg/mL (≈ 99 µM). Also, in the series with HSV-2 (strain MS), the IC50 stood at 13 µg/mL (≈ 32.2 µM).

With `O=C1C(=CNCc2ccncc2)C(=O)N(c2ccccc2)c2ccccc21` [EX. 28, (E,Z)1-Phenyl-3-[(-Pyridylmethylamino)methylene]Quinolin-2,4(1H)-Dione], the CC50 at 24 h in series [2] was determined as 25 µg/mL (≈ 70.3 µM). In addition, the half-maximal inhibitory concentration (IC50) in the series with HSV-2 (strain MS) was 7 µg/mL (≈ 19.7 µM).

As usually defined, the IC50 is the concentration that gives 50% inhibition.
